Reference: PMC10101933 (European journal of medicinal chemistry, 2023)

Legend:
[1] = target: T1, Keap1 Kelch domain protein (Homo sapiens, UniProt Q14145); experiment: Time-resolved fluorescence resonance energy transfer; assay type: binding
[2] = test system: Nrf2 target genes (GSTM3, HMOX1 and NQO1); experiment: RT-qPCR of Nrf2-ARE regulated genes in NCM460D cells; assay type: cell-based; conditions: 100 μM; for induction of the Nrf2 target genes (HMOX1, GSTM3, NQO1), in words: vs GAPDH and HPRT housekeeping genes
[3] = target: T1, Keap1 Kelch domain protein; experiment: Fluorescence polarization; assay type: binding

T1 sequence (Q14145 321-609 limits assumed): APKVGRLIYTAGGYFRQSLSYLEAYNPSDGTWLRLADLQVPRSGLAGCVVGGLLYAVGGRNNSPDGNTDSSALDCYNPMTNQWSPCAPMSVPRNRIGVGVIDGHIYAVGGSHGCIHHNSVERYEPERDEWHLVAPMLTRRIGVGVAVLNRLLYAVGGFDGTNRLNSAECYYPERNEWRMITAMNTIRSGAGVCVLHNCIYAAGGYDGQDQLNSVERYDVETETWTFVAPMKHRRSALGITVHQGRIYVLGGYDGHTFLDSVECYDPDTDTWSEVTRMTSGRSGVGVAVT

## COc1ccc(S(=O)(=O)N(CC(N)=O)c2cc(CCC(=O)O)c(N(CC(N)=O)S(=O)(=O)c3ccc(OC)cc3)c3ccccc23)cc1 [Compound 17a, 3-(1,4-Bis((N-(2-amino-2-oxoethyl)-4-methoxyphenyl)sulfonamido)naphthalen-2-yl)propanoic acid]
[1]; as indicated by TR-FRET IC50 and Ki
  fold decrease in potency relative to 2a: 3 fold

## COc1ccc(S(=O)(=O)N(CC(=O)O)c2cc(CCCN3C(=O)c4ccccc4C3=O)c(N(CC(=O)O)S(=O)(=O)c3ccc(OC)cc3)c3ccccc23)cc1 [Compound 24a, 2,2’-((2-(3-(1,3-Dioxoisoindolin-2-yl)propyl)naphthalene-1,4-diyl)bis(((4-methoxyphenyl)sulfonyl)azanediyl))diacetic acid]
[1]; from TR-FRET assay
  Ki value (in words): subnanomolar range
[2]
  mRNA levels of GSTM3, HMOX1 and NQO1, fold vs vehicle (DMSO) control: 2.4–11.7 fold
  induction of the Nrf2 target genes (HMOX1, GSTM3, NQO1), in words: significant induction

## COc1ccc(-c2cc(N(CC(=O)O)S(=O)(=O)c3ccc(OC)cc3)c3ccccc3c2N(CC(=O)O)S(=O)(=O)c2ccc(OC)cc2)cc1 [Compound 12b, 2,2’-((2-(4-Methoxyphenyl)naphthalene-1,4-diyl)bis(((4-methoxyphenyl)sulfonyl)azanediyl))diacetic acid]
[2]
  induction of the Nrf2 target genes (HMOX1, GSTM3, NQO1), in words: significant induction

## COc1ccc(S(=O)(=O)N(CC(=O)O)c2cc(CCC(N)=O)c(N(CC(=O)O)S(=O)(=O)c3ccc(OC)cc3)c3ccccc23)cc1 [Compound 21, 2,2’-((2-(3-Amino-3-oxopropyl)naphthalene-1,4-diyl)bis(((4-methoxyphenyl)sulfonyl)azanediyl))diacetic acid]
[1]; as indicated by the Ki value from the TR-FRET assay
  fold drop in inhibitory activity vs 2a: ~2 fold

## COc1ccc(S(=O)(=O)N(CC(=O)O)c2cc(CCCN(C)Cc3ccccc3)c(N(CC(=O)O)S(=O)(=O)c3ccc(OC)cc3)c3ccccc23)cc1 [Compound 24b, 2,2’-((2-(3-(Benzyl(methyl)amino)propyl)naphthalene-1,4-diyl)bis(((4-methoxyphenyl)sulfonyl)azanediyl))diacetic acid]
[3]
  IC50: 0.276 ± 0.017 µM
[1]; TR-FRET assay
  fold reduction in potency vs 24a: more than 20 fold

## COc1ccc(S(=O)(=O)N(CC(=O)O)c2cc(-c3ccc(C#N)cc3)c(N(CC(=O)O)S(=O)(=O)c3ccc(OC)cc3)c3ccccc23)cc1 [Compound 12c, 2,2’-((2-(4-Cyanophenyl)naphthalene-1,4-diyl)bis(((4-methoxyphenyl)sulfonyl)azanediyl))diacetic acid]
[2]
  induction of the Nrf2 target genes (HMOX1, GSTM3, NQO1), in words: no induction

## COc1ccc(S(=O)(=O)N(CC(=O)O)c2cc(-c3ccc(N4C(=O)c5ccccc5C4=O)cc3)c(N(CC(=O)O)S(=O)(=O)c3ccc(OC)cc3)c3ccccc23)cc1 [Compound 12d, 2,2’-((2-(4-(1,3-Dioxoisoindolin-2-yl)phenyl)naphthalene-1,4-diyl)bis(((4-methoxyphenyl)sulfonyl)azanediyl))diacetic acid]
[2]
  induction of the Nrf2 target genes (HMOX1, GSTM3, NQO1), in words: significant induction

## COc1ccc(S(=O)(=O)N(CC(=O)O)c2cc(CCC(=O)N3CCOCC3)c(N(CC(=O)O)S(=O)(=O)c3ccc(OC)cc3)c3ccccc23)cc1 [Compound 17c, 2,2’-((2-(3-Morpholino-3-oxopropyl)naphthalene-1,4-diyl)bis(((4-methoxyphenyl)sulfonyl)azanediyl))diacetic acid]
[1]; as indicated by the TR-FRET Ki
  fold increase in binding affinity vs 17b: 2 fold
[2]
  induction of the Nrf2 target genes (HMOX1, GSTM3, NQO1), in words: significant induction
